Experimental data taken from patent US20220184008A1, “MODULATORS OF INTRACELLULAR CHLORIDE CONCENTRATION” (FONDAZIONE ISTITUTO ITALIANO DI TECNOLOGIA, priority 2019, published 2022).
Read-outs that look alike come from different tables or passages of the source.

Tests used:
NKCC1 [1] = test: Calcium kinetic assay in primary cultures of immature hippocampal neurons; assay type: cell-based; conditions: for NKCC1 Inhibition % 10 μM Neurons Calcium kinetic assay: immature neurons 3 DIV
Method: FIG. 2: In vitro testing of the NKCC1 inhibitors in a calcium kinetic assay. a) Example traces of fluorescence levels upon application of GABA (100 μM) and KCl (90 mM) used to trigger calcium influx in primary neuronal cultures treated after 3 days in culture (3 DIV) with vehicle, bumetanide, furosemide and compounds 3.8, 3.13 and 3.17 in the calcium kinetic assay. b) Quantification of the average fluorescence increase upon GABA application normalized to the increase upon KCl application in neurons treated with bumetanide, furosemide and 3 exemplary compounds (3.8, 3.13, 3.17) (10 μM, 100 μM). Data represents mean±sem from 5 independent experiments, and they are presented as % of the control. *P<0.05, **P<0.01, ***P<0.001 Kruskal-Wallis Anova (Dunn's Post hoc Test).
Next, the compounds of the invention were tested for their ability to revert the depolarizing GABAergic signaling in immature neurons. This effect was indirectly measured as calcium influx into the cells with an in vitro calcium kinetic assay in primary cultures of hippocampal neurons. The calcium kinetic assay exploits the physiological, endogenous, high expression of NKCC1 in immature neurons, which causes depolarizing actions of GABA and can activate voltage-gated Ca^2+ channels. Thus, in immature neurons, a compound that blocks NKCC1 is predicted to inhibit Ca^2+ responses upon GABA application. Immature neurons were cultured for 3 days in vitro (3 DIV) and loaded for 15 min with a calcium-sensitive dye (Fluo4). Then, the neurons were treated with bumetanide and furosemide (as positive controls) or with each of the selected compounds for 15 min. As a functional readout, the fluorescence level was monitored in these cultures before and after application of GABA (100 μM, for 20 sec). To test for neuronal viability at the end of the experiment, KCl was applied (90 mM, for 40 sec), which strongly depolarizes neurons, causing high activation of voltage-gated Ca^2+ channels in live cells. To quantify how bumetanide, furosemide, and selected compounds influenced NKCC1 inhibition, the fluorescence values were normalized upon GABA application to the fluorescence levels upon KCl application in treated neurons.

NKCC1 [2] = target: T1, NKCC1 (Homo sapiens, UniProt P55011); test: Chloride kinetic assay (Cl-sensitive YFP) in NKCC1-transfected HEK293 cells; assay type: cell-based; conditions: for inhibition at 10 µM / NKCC1 Inhibition % 10 μM HEK Chloride YFP assay: NKCC1-transfected HEK293; for inhibition at 10 µM: read-out: NKCC1 Inhibition % 10 μM HEK Chloride YFP assay
T1 construct: expressed in transfected cells; host or cells: HEK293
T1 sequence (P55011 1-1212): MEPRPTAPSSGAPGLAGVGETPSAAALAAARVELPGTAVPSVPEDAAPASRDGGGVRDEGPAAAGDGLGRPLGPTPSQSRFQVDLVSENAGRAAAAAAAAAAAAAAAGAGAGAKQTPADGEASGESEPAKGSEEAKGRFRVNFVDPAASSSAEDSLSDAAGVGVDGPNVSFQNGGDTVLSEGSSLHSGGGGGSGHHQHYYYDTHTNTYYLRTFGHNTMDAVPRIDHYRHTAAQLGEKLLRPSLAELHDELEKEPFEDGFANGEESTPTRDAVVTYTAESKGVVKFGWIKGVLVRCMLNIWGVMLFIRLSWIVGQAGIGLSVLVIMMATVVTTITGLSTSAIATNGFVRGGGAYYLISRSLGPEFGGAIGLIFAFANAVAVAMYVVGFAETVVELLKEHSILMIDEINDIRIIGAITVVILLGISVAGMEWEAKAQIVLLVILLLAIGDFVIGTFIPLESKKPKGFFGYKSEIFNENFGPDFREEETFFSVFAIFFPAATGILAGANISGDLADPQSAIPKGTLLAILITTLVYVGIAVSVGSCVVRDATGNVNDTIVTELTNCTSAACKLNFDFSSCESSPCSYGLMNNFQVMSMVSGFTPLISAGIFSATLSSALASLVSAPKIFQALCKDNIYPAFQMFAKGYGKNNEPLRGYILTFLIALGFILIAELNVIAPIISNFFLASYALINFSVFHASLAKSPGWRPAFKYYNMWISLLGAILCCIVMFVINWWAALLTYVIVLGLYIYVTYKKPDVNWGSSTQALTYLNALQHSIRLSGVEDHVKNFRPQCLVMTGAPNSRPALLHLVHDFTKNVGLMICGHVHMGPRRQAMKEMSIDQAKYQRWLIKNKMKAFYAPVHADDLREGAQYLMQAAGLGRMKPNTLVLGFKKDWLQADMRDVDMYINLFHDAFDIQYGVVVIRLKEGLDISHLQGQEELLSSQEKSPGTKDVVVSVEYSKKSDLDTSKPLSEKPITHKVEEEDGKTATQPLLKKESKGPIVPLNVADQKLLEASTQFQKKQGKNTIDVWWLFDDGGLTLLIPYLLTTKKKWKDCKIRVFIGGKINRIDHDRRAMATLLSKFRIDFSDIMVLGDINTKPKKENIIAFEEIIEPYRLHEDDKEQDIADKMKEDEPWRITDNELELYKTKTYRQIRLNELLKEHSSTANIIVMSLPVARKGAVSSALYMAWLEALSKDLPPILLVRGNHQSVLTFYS
Method: FIG. 1: In vitro testing of the NKCC1 inhibitors in the chloride kinetic assay a) Example traces obtained in the chloride kinetic assay on HEK cells transfected with the YFP (mock) or with YFP and NKCC1. The arrow indicates the addition of NaCl (final concentration 74 mM) used to initiate the flux assay. b) Quantification of the effect of bumetanide (10 μM and 100 μM) or furosemide (10 μM and 100 μM) in the chloride kinetic assay on mock or NKCC1-transfected HEK293 cells. Data represents mean±sem from 5 independent experiments. c) Quantification of the effect of bumetanide and furosemide and 2 selected compounds (3.8, 3.17) in the chloride kinetic assay on NKCC1-transfected HEK293 cells. Data represents mean±sem from 5 independent experiments, and they are represented as % of the controls. *P<0.05, **P<0.01, ***P<0.001 Kruskal-Wallis Anova (Dunn's Post hoc Test); ###P<0.001 two-tailed unpaired Student t-test.
To screen in vitro the compounds efficiency in blocking NKCC1, a functional NKCC1 transporter assay was performed by measuring variation of Cl^− ion concentration in the cell through a Cl^− sensitive membrane-tagged yellow fluorescent protein (mbYFPQS, Addgene). mbYFPQS fluorescence is inversely dependent on the concentration of Cl^− inside the cell thus allowing an indirect estimation of the Cl^− transporter activity. In particular, HEK293 cells were transfected with NKCC1 or mock construct (control) together with the Cl^− sensitive YFP. After 2 DIV, the cells were treated with bumetanide and furosemide (as positive controls) or with each of the tested compounds of the invention in a Cl^− free medium. After 30 min, the inhibitory activity of the compounds was tested by monitoring fluorescence upon application of NaCl (FIG. 1a). Transported by NKCC1, Cl binds the YFP, leading to a fluorescence decrease. […] With the Cl kinetic assay, the NKCC1 inhibitory activity of the selected compounds was tested (FIG. 1c).

Compound | inhibition at 10 µM (NKCC1 [2]; Table 1) | NKCC1 Inhibition % 10 μM HEK Chloride YFP assay (NKCC1 [2]; Table 1) | NKCC1 Inhibition % 10 μM HEK Chloride YFP assay (NKCC1 [2]; Table 2) | NKCC1 Inhibition % 10 μM Neurons Calcium kinetic assay (NKCC1 [1]; Table 1) | NKCC1 Inhibition % 10 μM Neurons Calcium kinetic assay (NKCC1 [1]; Table 2) | further results
CCCCNc1cc(C(=O)O)cc(S(N)(=O)=O)c1Oc1ccccc1 [Bumetanide, reference compound] | 54% | – | – | 52% | 52% | fluorescence increase upon GABA application compared with vehicle (DMSO)-treated controls (NKCC1 [1]; GABA 100 μM, normalized to KCl): significantly reduced; effect on decrease in fluorescence upon NaCl application in NKCC1-transfected cells (NKCC1 [2]; pre-incubation at 10 μM and 100 μM): significantly reduced
CCCCNc1ccc([N+](=O)[O-])cc1S(N)(=O)=O [Compound 1.6, 2-(butylamino)-5-nitro-benzenesulfonamide] | 11% | – | – | – | – | –
CCCCCCNc1ccc([N+](=O)[O-])cc1S(N)(=O)=O [Compound 1.7, 2-(hexylamino)-5-nitro-benzenesulfonamide] | 25% | – | – | 36% | 36% | –
CCCCCCCCNc1ccc([N+](=O)[O-])cc1S(N)(=O)=O [Compound 1.8, 5-nitro-2-(octylamino)benzenesulfonamide] | 12% | – | – | – | – | –
CC(C)(C)CCNc1ccc([N+](=O)[O-])cc1S(N)(=O)=O [Compound 1.9, 2-(3,3-dimethylbutylamino)-5-nitro-benzenesulfonamide] | 5% | – | – | – | – | –
CCCCNc1ccc([N+](=O)[O-])cc1S(=O)(=O)NC [Compound 1.10, 2-(butylamino)-N-methyl-5-nitro-benzenesulfonamide] | – | Inactive | Inactive | – | – | –
CCCCCCNc1ccc([N+](=O)[O-])cc1S(=O)(=O)NC [Compound 1.11, 2-(hexylamino)-N-methyl-5-nitro-benzenesulfonamide] | – | – | – | – | – | inhibition at 10 µM (NKCC1 [2]; Table 2): 3.4%
CCCCCCCCNc1ccc([N+](=O)[O-])cc1S(=O)(=O)NC [Compound 1.12, N-methyl-5-nitro-2-(octylamino)benzenesulfonamide] | – | Inactive | Inactive | – | – | –
CNS(=O)(=O)c1cc([N+](=O)[O-])ccc1NCCC(C)(C)C [Compound 1.13, 2-(3,3-dimethylbutylamino)-N-methyl-5-nitro-benzenesulfonamide] | 17% | – | – | – | – | –
CCCCNc1ccc([N+](=O)[O-])cc1S(=O)(=O)N(C)C [Compound 1.14, 2-(butylamino)-N,N-dimethyl-5-nitro-benzenesulfonamide] | – | Inactive | Inactive | – | – | –
CCCCCCNc1ccc([N+](=O)[O-])cc1S(=O)(=O)N(C)C [Compound 1.15, 2-(hexylamino)-N,N-dimethyl-5-nitro-benzenesulfonamide] | 16% | – | – | – | – | –
CCCCCCCCNc1ccc([N+](=O)[O-])cc1S(=O)(=O)N(C)C [Compound 1.16, N,N-dimethyl-5-nitro-2-(octylamino)benzenesulfonamide] | – | Inactive | Inactive | – | – | –
CN(C)S(=O)(=O)c1cc([N+](=O)[O-])ccc1NCCC(C)(C)C [Compound 1.17, 2-(3,3-dimethylbutylamino)-N,N-dimethyl-5-nitro-benzenesulfonamide] | – | Inactive | Inactive | – | – | –

The next lines start with results.

inhibition at 10 µM (NKCC1 [2]; Table 1) | NKCC1 Inhibition % 10 μM HEK Chloride YFP assay (NKCC1 [2]; Table 1) | NKCC1 Inhibition % 10 μM HEK Chloride YFP assay (NKCC1 [2]; Table 2) | Compound | NKCC1 Inhibition % 10 μM Neurons Calcium kinetic assay (NKCC1 [1]; Table 1) | NKCC1 Inhibition % 10 μM Neurons Calcium kinetic assay (NKCC1 [1]; Table 2) | further results
36% | – | – | CCCCNc1cc(Cl)c(C(=O)O)cc1S(N)(=O)=O [Compound 2.2, 4-(butylamino)-2-chloro-5-sulfamoyl-benzoic acid] | 2% | 2% | –
10% | – | – | CCCCCCNc1cc(Cl)c(C(=O)O)cc1S(N)(=O)=O [Compound 2.3, 2-chloro-4-(hexylamino)-5-sulfamoyl-benzoic acid] | – | – | –
14% | – | – | CCCCCCCCNc1cc(Cl)c(C(=O)O)cc1S(N)(=O)=O [Compound 2.4, 2-chloro-4-(octylamino)-5-sulfamoyl-benzoic acid] | – | – | –
– | Inactive | Inactive | CC(C)(C)CCNc1cc(Cl)c(C(=O)O)cc1S(N)(=O)=O [Compound 2.5, 2-chloro-4-(3,3-dimethylbutylamino)-5-sulfamoyl-benzoic acid] | – | – | –
– | Inactive | Inactive | CCCCNc1ccc(C(=O)O)cc1S(N)(=O)=O [Compound 2.6, 4-(butylamino)-3-sulfamoyl-benzoic acid] | 14% | 14% | –
4% | – | – | CCCCCCNc1ccc(C(=O)O)cc1S(N)(=O)=O [Compound 2.7, 4-(hexylamino)-3-sulfamoyl-benzoic acid] | 10% | 10% | –
5% | – | – | CCCCCCCCNc1ccc(C(=O)O)cc1S(N)(=O)=O [Compound 2.8, 4-(octylamino)-3-sulfamoyl-benzoic acid] | 3% | 3% | –
1% | – | – | CC(C)(C)CCNc1ccc(C(=O)O)cc1S(N)(=O)=O [Compound 2.9, 4-(3,3-dimethylbutylamino)-3-sulfamoyl-benzoic acid] | 25% | 25% | –
